Reference: PubChem BioAssay AID1259407 (Chemical Carcinogenesis Research Information System (CCRIS), 2018)
Activity calls are given as the source filed them. How the calls were made is not given here.

System: CCRIS mutagenicity, Ames/micronucleus/aberration tests
Assay: CCRIS mutagenicity studies

Q: What does the source list for Cn1c([N+](=O)[O-])nc2c3cccnc3ccc21?
A: mutagenic call (Test System: AMES SALMONELLA TYPHIMURIUM, Strain/Indicator: TA98(1,8-DNP6), Metabolic Activation: NONE, Method: PREINCUBATION): inactive; negative; mutagenic call (Test System: AMES SALMONELLA TYPHIMURIUM, Strain/Indicator: TA98, Metabolic Activation: NONE, Method: PREINCUBATION): active; positive; mutagenic call (Test System: AMES SALMONELLA TYPHIMURIUM, Strain/Indicator: YG1024, Metabolic Activation: NONE, Method: PREINCUBATION): active; positive; mutagenic call (Test System: E. COLI, Strain/Indicator: CC109, Metabolic Activation: NONE, Method: STANDARD PLATE): active; positive; mutagenic call (Test System: E. COLI, Strain/Indicator: CC109PYG219, Metabolic Activation: NONE, Method: STANDARD PLATE): active; positive; mutagenic call (Test System: E. COLI, Strain/Indicator: DJ3107, Metabolic Activation: NONE, Method: STANDARD PLATE): inactive; negative; mutagenic call (Test System: E. COLI, Strain/Indicator: DJ3108, Metabolic Activation: NONE, Method: STANDARD PLATE): active; positive; mutagenic call (Test System: E. COLI, Strain/Indicator: DJ3109, Metabolic Activation: NONE, Method: STANDARD PLATE): active; positive; mutagenic call (Test System: E. COLI, Strain/Indicator: DJ3110, Metabolic Activation: NONE, Method: STANDARD PLATE): inactive; negative; mutagenic call (Test System: E. COLI, Strain/Indicator: DJ3111, Metabolic Activation: NONE, Method: STANDARD PLATE): inactive; negative; mutagenic call (Test System: E. COLI, Strain/Indicator: DJ3207, Metabolic Activation: NONE, Method: STANDARD PLATE): inactive; negative; mutagenic call (Test System: E. COLI, Strain/Indicator: DJ3208, Metabolic Activation: NONE, Method: STANDARD PLATE): active; positive; mutagenic call (Test System: E. COLI, Strain/Indicator: DJ3209, Metabolic Activation: NONE, Method: STANDARD PLATE): active; positive; mutagenic call (Test System: E. COLI, Strain/Indicator: DJ3211, Metabolic Activation: NONE, Method: STANDARD PLATE): inactive; negative

Q: What does the source list for C1=Cc2c3ccc4ccccc4c3cc3cccc1c23?
A: mutagenic call (Test System: AMES SALMONELLA TYPHIMURIUM, Strain/Indicator: TA98, Metabolic Activation: HUMAN, LIVER, MICROSOMES, Method: STANDARD PLATE): active; positive; mutagenic call (Test System: AMES SALMONELLA TYPHIMURIUM, Strain/Indicator: TA98, Metabolic Activation: NONE, Method: STANDARD PLATE): inactive; negative; mutagenic call (Test System: AMES SALMONELLA TYPHIMURIUM, Strain/Indicator: TA98, Metabolic Activation: RAT, LIVER, HEPATOCYTES, Method: PREINCUBATION): active; positive; mutagenic call (Test System: AMES SALMONELLA TYPHIMURIUM, Strain/Indicator: TA98, Metabolic Activation: RAT, LIVER, MICROSOMES, AROCLOR 1254, Method: STANDARD PLATE): active; positive; mutagenic call (Test System: AMES SALMONELLA TYPHIMURIUM, Strain/Indicator: TA98, Metabolic Activation: RAT, LIVER, MICROSOMES, Method: STANDARD PLATE): active; positive; mutagenic call (Test System: AMES SALMONELLA TYPHIMURIUM, Strain/Indicator: TA98, Metabolic Activation: RAT, LIVER, S-9, AROCLOR 1254 (0.4, 0.8, 1.15 OR 1.5 MG/PLATE), Method: STANDARD PLATE): active; positive; mutagenic call (Test System: AMES SALMONELLA TYPHIMURIUM, Strain/Indicator: TA98, Metabolic Activation: RAT, LIVER, S-9, AROCLOR 1254, Method: STANDARD PLATE): active; positive; mutagenic call (Test System: AMES SALMONELLA TYPHIMURIUM, Strain/Indicator: TA98, Metabolic Activation: RAT, LUNG, MICROSOMES, AROCLOR 1254, Method: STANDARD PLATE): active; positive; mutagenic call (Test System: AMES SALMONELLA TYPHIMURIUM, Strain/Indicator: TA98, Metabolic Activation: RAT, LUNG, MICROSOMES, Method: STANDARD PLATE): inactive; negative; mutagenic call (Test System: CHINESE HAMSTER OVARY, Strain/Indicator: V-79/6-THIOGUANINE, Metabolic Activation: RAT, LIVER, S-9, AROCLOR 1254, Method: FLASK ASSAY): active; positive; mutagenic call (Test System: CHINESE HAMSTER OVARY, Strain/Indicator: V-79/6-THIOGUANINE, Metabolic Activation: SHE CELL MEDIATED, Method: FLASK ASSAY): inactive; negative; mutagenic call (Test System: CHINESE HAMSTER V-79, Strain/Indicator: V-79/6-THIOGUANINE, Metabolic Activation: RAT, LIVER, S-9, AROCLOR 1254, Method: SUSPENSION/PLATE): active; positive; mutagenic call (Test System: UDS RAT HEPATOCYTES, Strain/Indicator: THY INCORP, Metabolic Activation: NONE, Method: LIQUID SCINTILLATION COUNTING): active; positive
